Source: patent US20190151236A1, “LIPOSOMAL CORTICOSTEROIDS FOR TOPICAL INJECTION IN INFLAMED LESIONS OR AREAS” (ENCELADUS PHARMACEUTICALS B.V., priority 2016, published 2019)
Like-named read-outs stand apart in the source and are kept apart here.

How the values were obtained:
cataract formation = assay: Cataract formation on slit lamp biomicroscopy on day 31 (LOCS scale) in the rabbit uveitis study; conditions: day 31, slit lamp, FIG. 4

## C[C@]12C=CC(=O)C=C1CC[C@@H]1[C@@H]2[C@@H](O)C[C@@]2(C)[C@H]1CC[C@]2(O)C(=O)COP(=O)(O)O [Free PP, prednisolone phosphate]
Experimental uveitis; Day 1 after 1st intravitreal induction, before intervention (baseline), mean ± SD, sum of iris congestion (0-3), anterior chamber cells (0-4), flare (0-3)
  Combined anterior segment inflammatory score: 8.6 ± 0.5
Experimental uveitis; Day 3, at intervention (baseline, maximum inflammation)
  Combined anterior segment inflammatory score: 8.0 ± 0.7
Experimental uveitis; Day 4, one day after intervention (single 0.1 ml subconjunctival injection 4 mg/ml, or eye drops 4 drops per day)
  Combined anterior segment inflammatory score: 6.0 ± 0.7
Experimental uveitis; Day 8, 5 days after intervention, before 2nd intravitreal induction
  Combined anterior segment inflammatory score: 3.2 ± 0.4
Experimental uveitis; Day 9, 1 day after 2nd intravitreal induction
  Combined anterior segment inflammatory score: 8.0 ± 1.2
Experimental uveitis; Day 11, 3 days after rechallenge of intravitreal TB antigen
  Combined anterior segment inflammatory score: 7.0 ± 2.3
Experimental uveitis; Day 16, 2 weeks post treatment
  Combined anterior segment inflammatory score: 5.4 ± 1.3
Experimental uveitis; Day 24
  Combined anterior segment inflammatory score: 2.8 ± 0.4
Experimental uveitis; Day 31
  Combined anterior segment inflammatory score: 2.2 ± 1.3
Cataract formation
  Cataract formation (posterior subcapsular cataracts): trend towards higher rates
